Measured values: US9863934B2, “Screening methods for cognitive enhancers” (Dart Neuroscience (Cayman) Ltd., priority 2002, dated 2018)
“Also recorded” adds a separate entry of the source.

Assays:
normal mice = assay: memory formation in normal mice after weak or strong training (% Freezing, FIG. 1); type: in vivo
Source text: FIG. 1 is a bar graph showing the results of drug-induced (partial) enhancement of memory in normal mice by rolipram, a prototypical phosphodiesterase (PDE) inhibitor. Five-day retention after weak training (2×) is lower than strong training (5×). Only memory after weak training is enhanced by bilateral hippocampal injections (1 :l) of rolipram immediately after training. Rolipram reduced the number of training sessions required to produce memory. % Freezing=% Observation time mice spent frozen/motionless.
These Active Hits were evaluated in vivo rodent models of memory formation. To do so efficiently, a new behavioral training protocol was validated, which logically was affected by upstream modulation of the CREB pathway. During initial stages of acquisition, repeated training trials lead to increased cAMP levels. At some point, cAMP levels pass a threshold, and activated PKA (catalytic subunit) is translocated to the nucleus, where it phosphorylates CREB directly or it yields a permissive state for the phosphorylation of CREB by a cofactor. In this context, phosphodiesterase (PDE) inhibitors act to increase cAMP levels beyond the threshold with fewer training trials, thereby producing more long-lasting memory with weaker training.

human CREB RNA = assay: human CREB bDNA assay; type: cell-based
Source text: CREB 1 and CREB 3 oligos have identical sequence homology with both mouse and human. CREB 17 has a single base mismatch.

[1] = test system: CREB mRNA in Neuro2a cells; assay: bDNA assay of CREB mRNA after transfection of CREB LNA antisense oligos (FIG. 3); type: cell-based, Mus musculus; conditions: higher concentration (0.5 :M)
Experimental: Detection of CREB mRNA with the bDNA Assay. Mus musculus Neuro2a cells were obtained from American Type Culture Collection (ATCC, Cat. No. CCL-131; Manassas, Va.). Cells were plated in Modified Eagle's Minimum Essential Media (Minimum essential medium (Eagle) with 2 mM L-glutamine and Earle's BSS adjusted to contain 1.5 g/L sodium bicarbonate, 0.1 mM non-essential amino acids, and 1.0 mM sodium pyruvate, 90%; fetal bovine serum, […]) in a 96-microwell format at 2×10^4 cells per well. Cells were maintained at 37 C. and 5% CO2 overnight before transfecting with CREB Locked Nucleic Acid (LNA) oligonucleotides.
Cells were transfected using Lipofectamine 2000 (hivitrogen, Carlsbad, Calif.) with modifications to the manufacturer's protocol. […]
The direct quantitation of CREB messenger RNA (mRNA) following transfection of antisense oligos, was detected using the QuantiGene Expression Kit according to the manufacturer's protocol (Bayer Corporation; Tarrytown, N.Y.). […] The luminescence of each well was measured in a Wallac Victor2 V (Perkin Elmer) plate luminometer at 45 C. […]

Compound | number of training sessions required to produce memory (normal mice) | memory (five-day retention, % Freezing) after weak training (normal mice; weak training (2×), not strong training (5×), bilateral hippocampal injections (1 :l) immediately after training) | knocking down human CREB RNA levels (human CREB RNA) | effect on endogenous CREB RNA levels [1]
COc1ccc(C2CNC(=O)C2)cc1OC1CCCC1 (stereo not drawn) [rolipram] | reduced | effect was established as predicted; also recorded: enhanced |  | 
CCTCCgCCgCgTCACTCA (LNA modifications, as printed in the source, key not given here) [CREB1, CREB Locked Nucleic Acid (LNA) antisense oligonucleotide] |  |  | factional in knocking down human CREB RNA levels | 
TggCACTgTTACAgTggT (LNA modifications, as printed in the source, key not given here) [CREB17, CREB LNA antisense oligonucleotide; single base mismatch to human] |  |  | factional in knocking down human CREB RNA levels | 
TggTCATTTAgTTACCggTg (as printed in the source, key not given here) [CREB3] |  |  | factional in knocking down human CREB RNA levels | reduces endogenous CREB RNA levels
